A short description of this data set: activity coefficient (dimensionless); of the first substance listed, at infinite dilution; xn = mol fraction of the nth substance listed. Conditions: Liquid, GC, x1 = 0.

± gives the expanded uncertainty stated by the source.

On to `ClC(Cl)Cl` [trichloromethane] + CCCCCCCCCCCCCCCCCCO, for which the activity coefficient by setting is: (333.15 K, 101 kPa) 0.0227 ± 0.0014; (338.15 K, 101 kPa) 0.022 ± 0.0013; (343.15 K, 101 kPa) 0.0214 ± 0.0013; (348.15 K, 101 kPa) 0.0208 ± 0.0012; (353.15 K, 101 kPa) 0.0202 ± 0.0012.

Consider `CCOCC` [diethyl ether] + CCCCCCCCCCCCCCCCCCCCO, for which the activity coefficient by setting is: (338.15 K, 101 kPa) 0.0652 ± 0.0039; (343.15 K, 101 kPa) 0.0624 ± 0.0037; (348.15 K, 101 kPa) 0.0598 ± 0.0036; (353.15 K, 101 kPa) 0.0572 ± 0.0034.

Regarding `CC#N` [acetonitrile] + CCCCCCCCCCCCCCCCCCCCO, the activity coefficient (338.15 K, 101 kPa) stood at 0.309 ± 0.019; the activity coefficient (343.15 K, 101 kPa) came out at 0.265 ± 0.016; the activity coefficient (348.15 K, 101 kPa) stood at 0.229 ± 0.014; the activity coefficient (353.15 K, 101 kPa) came to 0.197 ± 0.012.

In the case of `CCOC(C)=O` [ethyl acetate] + CCCCCCCCCCCCCCCCCCCCO, the activity coefficient runs as follows: (338.15 K, 101 kPa) 0.123 ± 0.0074; (343.15 K, 101 kPa) 0.11 ± 0.0066; (348.15 K, 101 kPa) 0.099 ± 0.0059; (353.15 K, 101 kPa) 0.0888 ± 0.0053.

Regarding `CCCCCl` [1-chlorobutane] + CCCCCCCCCCCCCCCCCCCCO, the activity coefficient is, setting by setting: (338.15 K, 101 kPa) 0.0991 ± 0.0059; (343.15 K, 101 kPa) 0.0954 ± 0.0057; (348.15 K, 101 kPa) 0.0919 ± 0.0055; (353.15 K, 101 kPa) 0.0886 ± 0.0053.

Take `CCO` [ethanol] + CCCCCCCCCCCCCCCCCCO: the activity coefficient came out at 0.0433 ± 0.0026 (333.15 K, 101.3 kPa); 0.0396 ± 0.0024 (338.15 K, 101.3 kPa); 0.0369 ± 0.0022 (343.15 K, 101.3 kPa); 0.0343 ± 0.0021 (348.15 K, 101.3 kPa); 0.032 ± 0.002 (353.15 K, 101.3 kPa).

Turning to `Cc1ccccc1` [toluene] + CCCCCCCCCCCCCCCCCCCCO, the activity coefficient reads like this: (338.15 K, 101 kPa) 0.544 ± 0.033; (343.15 K, 101 kPa) 0.479 ± 0.029; (348.15 K, 101 kPa) 0.421 ± 0.025; (353.15 K, 101 kPa) 0.373 ± 0.022.

Turning to `CCCCOC(C)=O` [butyl ethanoate] + CCCCCCCCCCCCCCCCCCO, the activity coefficient is, setting by setting: (333.15 K, 101.3 kPa) 0.0526 ± 0.0032; (338.15 K, 101.3 kPa) 0.0468 ± 0.0028; (343.15 K, 101.3 kPa) 0.0428 ± 0.0026; (348.15 K, 101.3 kPa) 0.0391 ± 0.0023; (353.15 K, 101.3 kPa) 0.0358 ± 0.0021.

With `CO` [methanol] + CCCCCCCCCCCCCCCCCCO, the activity coefficient reads like this: (333.15 K, 101 kPa) 0.0423 ± 0.0025; (338.15 K, 101 kPa) 0.0386 ± 0.0023; (343.15 K, 101 kPa) 0.0357 ± 0.0021; (348.15 K, 101 kPa) 0.033 ± 0.002; (353.15 K, 101 kPa) 0.0306 ± 0.0018.

For `CCCO` [propan-1-ol] + CCCCCCCCCCCCCCCCCCCCO, the activity coefficient is 0.213 ± 0.013 (338.15 K, 101 kPa); 0.193 ± 0.012 (343.15 K, 101 kPa); 0.175 ± 0.011 (348.15 K, 101 kPa); 0.159 ± 0.0095 (353.15 K, 101 kPa).

`CC(C)=O` [acetone] + CCCCCCCCCCCCCCCCCCO: the activity coefficient by setting is: (333.15 K, 101 kPa) 0.0185 ± 0.0011; (338.15 K, 101 kPa) 0.0179 ± 0.0011; (343.15 K, 101 kPa) 0.0174 ± 0.001; (348.15 K, 101 kPa) 0.017 ± 0.001; (353.15 K, 101 kPa) 0.0166 ± 0.001.

As for `CCCCC` [pentane] + CCCCCCCCCCCCCCCCCCCCO, the activity coefficient reads like this: (338.15 K, 101 kPa) 0.0954 ± 0.0057; (343.15 K, 101 kPa) 0.0801 ± 0.0048; (348.15 K, 101 kPa) 0.0668 ± 0.004; (353.15 K, 101 kPa) 0.0564 ± 0.0034.

Consider `C1CCCCC1` [cyclohexane] + CCCCCCCCCCCCCCCCCCCCO, for which the activity coefficient runs as follows: (338.15 K, 101 kPa) 0.108 ± 0.0065; (343.15 K, 101 kPa) 0.102 ± 0.0061; (348.15 K, 101 kPa) 0.0969 ± 0.0058; (353.15 K, 101 kPa) 0.0918 ± 0.0055.

Consider `C=CCCCCC` [1-heptene] + CCCCCCCCCCCCCCCCCCCCO, for which the activity coefficient worked out at 0.124 ± 0.0074 (338.15 K, 101 kPa); 0.118 ± 0.0071 (343.15 K, 101 kPa); 0.113 ± 0.0068 (348.15 K, 101 kPa); 0.108 ± 0.0065 (353.15 K, 101 kPa).

For `CCO` [ethanol] + CCCCCCCCCCCCCCCCCCCCO, the activity coefficient was determined as 0.124 ± 0.0075 (338.15 K, 101 kPa); 0.117 ± 0.007 (343.15 K, 101 kPa); 0.106 ± 0.0063 (348.15 K, 101 kPa); 0.095 ± 0.0057 (353.15 K, 101 kPa).

On to `CCCO` [propan-1-ol] + CCCCCCCCCCCCCCCCCCO, for which the activity coefficient is, setting by setting: (333.15 K, 101.3 kPa) 0.0722 ± 0.0043; (338.15 K, 101.3 kPa) 0.0625 ± 0.0038; (343.15 K, 101.3 kPa) 0.0597 ± 0.0036; (348.15 K, 101.3 kPa) 0.055 ± 0.003; (353.15 K, 101.3 kPa) 0.051 ± 0.003.

Consider `C=CCCCCC` [1-heptene] + CCCCCCCCCCCCCCCCCCO, for which the activity coefficient amounted to 0.0431 ± 0.0026 (333.15 K, 101.3 kPa); 0.0417 ± 0.0025 (338.15 K, 101.3 kPa); 0.0407 ± 0.0024 (343.15 K, 101.3 kPa); 0.0397 ± 0.0024 (348.15 K, 101.3 kPa); 0.0388 ± 0.0023 (353.15 K, 101.3 kPa).

The record behind these values is the NIST ThermoML archive (doi:10.1021/je1005517).
